According to PubChem BioAssay (NCI):
Where “and” joins values, the source holds several entries; their conditions need not be identical. Equal entries are not always repeated.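 Interpolation was linear, between the two tested concentrations surrounding the appropriate level; five concentrations were tested over 48 hours in 96-well plates. GI50: concentration for 50% inhibition of growth. TGI: concentration producing complete growth inhibition.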 Where a SMILES comes first, the peptide text is derived from it. The star is where a group is joined. Boc = CC(C)(C)OC(=O)*; nBu = CCCC*

Tests used:
Test in all cases: NCI-60 cell line screen, 48 h
HCC-2998 colon = tested on: HCC-2998 colon
HCT-116 colon = tested on: HCT-116 colon
HOP-62 NSCLC = tested on: HOP-62 NSCLC
HS 578T breast = tested on: HS 578T breast
OVCAR-3 ovarian = tested on: OVCAR-3 ovarian
OVCAR-5 ovarian = tested on: OVCAR-5 ovarian
RPMI-8226 leukemia = tested on: RPMI-8226 leukemia
SF-268 CNS = tested on: SF-268 CNS
SW-620 colon = tested on: SW-620 colon
UACC-62 melanoma = tested on: UACC-62 melanoma
DU-145 prostate = tested on: DU-145 prostate

Structure (SMILES)	TGI (HCC-2998 colon)	TGI (HCT-116 colon)	TGI (HOP-62 NSCLC)	TGI (HS 578T breast) [µM]	TGI (OVCAR-3 ovarian)	TGI (OVCAR-5 ovarian)	TGI (RPMI-8226 leukemia)	TGI (SF-268 CNS)	TGI (SW-620 colon)	TGI (UACC-62 melanoma)	TGI (DU-145 prostate) [µM]	GI50 (HCC-2998 colon)	GI50 (HOP-62 NSCLC)	GI50 (OVCAR-3 ovarian)	GI50 (OVCAR-5 ovarian)	GI50 (SW-620 colon)	GI50 (UACC-62 melanoma)	GI50 (DU-145 prostate) [µM]	GI50 (HCT-116 colon) [µM]	GI50 (HS 578T breast) [µM]
O=C(O)c1cc2ccccc2c(N=Nc2ccc(S(=O)(=O)Nc3ncccn3)cc2)c1O	> 100 µM	> 100 µM	> 100 µM	> 100	> 100 µM	> 100 µM	> 100 µM	> 100 µM	> 100 µM	> 100 µM	–	–	–	–	–	–	–	–	–	–
C#C[C@]1(O)CC[C@H]2[C@@H]3CCc4cc(O)ccc4[C@H]3CC[C@@]21C	73.8 µM	> 100 µM	–	–	> 100 µM	> 100 µM	–	> 100 µM	> 100 µM	> 100 µM	–	–	–	–	–	–	–	–	–	–
CCOc1nc2c(N3CCCC3)nc(N3CCNCC3)nc2nc1NCc1ccccc1	2.62 µM	2.14 µM	2.33 µM	3.53	2.32 µM	16.3 µM	3.37 µM	3.03 µM	3.49 µM	3.25 µM	6.84	–	–	–	–	–	–	–	–	–
C/C(C=O)=C/[C@@]1(C)O[C@@H](C)[C@@](C)(O)[C@@H]1O	48.2 µM	> 100 µM	> 100 µM	> 100	> 100 µM	> 100 µM	> 100 µM	63.7 µM	> 100 µM	> 100 µM	> 100	–	–	–	–	–	–	–	–	–
CN1CCC(C(O)(c2ccccc2)c2ccc(Br)cc2)CC1 (stereo unspecified)	25.1 µM	51.1 µM	83.8 µM	> 100	> 100 µM	93.3 µM	45.8 µM	> 100 µM	61.1 µM	30.1 µM	> 100	–	–	–	–	–	–	–	–	–
N#C/C(=C(/O)CCl)c1nc2ccccc2o1	–	29.2 µM	41.9 µM	> 100	20.3 µM	–	7.87 µM	8.57 µM	> 100 µM	6.27 µM	> 100	–	–	–	–	–	–	–	–	–
COc1ccc2nc3cc(Cl)ccc3c(NCCCN3CCN(CCCNc4ccc5nnn6c7ccccc7c(=O)c4c56)CC3)c2c1	> 9.86 µM	> 20.2 µM	> 25 µM	> 25	> 25 µM	> 25 µM	> 25 µM	> 25 µM	> 25 µM	> 25 µM	> 25	–	–	–	–	–	–	–	–	–
Nc1nc(SCC(=O)c2ccc(Br)cc2)c2[nH]cnc2n1	–	> 100 µM	> 100 µM	81.9	> 100 µM	> 100 µM	> 100 µM	> 100 µM	> 100 µM	> 100 µM	> 100	–	–	–	–	–	–	–	–	–
COc1ccc(CCn2cncn2)cc1	> 100 µM	> 100 µM	> 100 µM	–	> 100 µM	> 100 µM	–	> 100 µM	> 100 µM	> 100 µM	–	–	–	–	–	–	–	–	–	–
CCCCCCCCCCCCCCCc1nc(=S)[nH][nH]1	> 100 µM	> 100 µM	> 100 µM	–	> 100 µM	> 100 µM	> 100 µM	> 100 µM	–	> 100 µM	–	–	–	–	–	–	–	–	–	–
CCCCOc1ccc(CC(NC(=O)OC(C)(C)C)C(=O)NC(C)C(=O)NC(Cc2ccccc2)C(=O)NCC(N)=O)cc1 (stereo unspecified) (Boc-Y(nBu)AFG-NH2; configuration not given here)	> 100 µM	> 100 µM	> 100 µM	> 100	> 100 µM	> 100 µM	> 100 µM	> 100 µM	> 100 µM	> 100 µM	> 100	–	–	–	–	–	–	–	–	–
CC1(C)OC[C@@H]([C@@]2(COC(c3ccccc3)(c3ccccc3)c3ccccc3)CC=CC(=O)O2)O1	41 µM	> 100 µM	> 100 µM	> 100	> 100 µM	> 100 µM	64.7 µM	> 100 µM	> 100 µM	> 100 µM	> 100	–	–	–	–	–	–	–	–	–
COc1cc(C2S/C(=C/c3ccccc3)C(=O)N2c2cccc(NC(C)=O)c2)cc(OC)c1OC (stereo unspecified)	> 100 µM	37.2 µM	> 100 µM	60.7	–	> 100 µM	–	> 100 µM	–	> 100 µM	–	–	–	–	–	–	–	–	–	–
O=[N+]([O-])c1ccc(N=Nc2c(O)[nH]c3ccccc23)c([N+](=O)[O-])c1	44.1 µM	49.7 µM	24.2 µM	> 100	13.9 µM	50.2 µM	> 100 µM	> 100 µM	> 100 µM	> 100 µM	30.1	–	–	–	–	–	–	–	–	–
COC(=O)c1c(O)ccc2c1c1c(n2Cc2cc(OC)cc(OC)c2)C(=O)c2ccccc2C1=O	5.73 µM	15.1 µM	23 µM	45.9	25 µM	55.9 µM	9.98 µM	41.2 µM	> 100 µM	–	71.9	–	–	–	–	–	–	–	–	–
CC(=O)c1ccc(Nc2c3ccccc3nc3occc23)cc1	0.794 µM	> 34.7 µM	> 100 µM	–	–	> 100 µM	4.28 µM	7.49 µM	> 100 µM	10.7 µM	5.39	–	–	–	–	–	–	–	–	–
O=c1c2cc(O)ccc2n2nnc3ccc(NCCNCCO)c1c32	26.4 µM and 14.5 µM	> 100 µM and 28.6 µM	43.4 µM and 18 µM	–	> 86 µM and 16.3 µM	> 100 µM and 34 µM	65 µM and 31.7 µM	11.2 µM and 13.1 µM	> 88.5 µM and 14.8 µM	19.4 µM and 13.3 µM	–	10.9 µM and 3.43 µM	10.1 µM and 3.25 µM	14.8 µM and 3.75 µM	22.5 µM and 9.69 µM	5.16 µM and 1.55 µM	6.87 µM and 3.14 µM	–	–	–
CN(CCc1ccccn1)c1ccc2c(c1)C(=O)c1ccccc1-2	> 100 µM	> 100 µM	> 100 µM	> 100	> 100 µM	> 100 µM	> 100 µM	> 100 µM	> 100 µM	> 100 µM	> 100	–	–	–	–	–	–	–	–	–
CN(C)c1ccc(-c2ccc(-c3ccc(C(=N)N)cn3)o2)cc1	–	2.92 µM	3.32 µM	4.07	3.24 µM	3.02 µM	–	–	2.41 µM	3.34 µM	3.18	–	1.74 µM	1.76 µM	1.62 µM	0.774 µM	1.76 µM	1.72	1.47	1.9
COc1ccc(C2C3CCc4ccccc4C3=NN2S(=O)(=O)c2cccc(C(=O)O)c2OC)cc1 (stereo unspecified)	–	> 100 µM	> 100 µM	–	68.6 µM	> 100 µM	54.7 µM	> 100 µM	> 100 µM	> 100 µM	> 100	–	–	–	–	–	–	–	–	–
